The values that follow come from patent publication US8686150B2 (Sanofi, priority 2011, dated 2014).

In the experiment the target is T1, human full-length recombinant PKC βII (Homo sapiens, UniProt P05771).
T1 construct: Active human full-length recombinant PKC βII; purchased Invitrogen GmbH, Darmstadt, Germany
Kind of experiment: Determination of PKC βII inhibition (Caliper mobility-shift kinase assay, Fluorescein-RFARKGSLRQKNV peptide substrate). In kind it is biochemical. The note with it: example compounds at a final concentration of 1.14 μM (±0.15 μM). Summed up:
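Compounds were tested at 1.14 μM final. Enzyme was activated by PS, DAG and CaCl2 in Hepes pH 7.4 with MgCl2, with substrate 3 μM and ATP 120 μM as pre-mix concentrations. After 60 min at 32 °C and an EDTA stop, Caliper separation gave fractional turnover, which was normalised to no-compound and no-enzyme controls.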

Molecules are shown by their SMILES.

T1 sequence (P05771 1-673 isoform P05771-2): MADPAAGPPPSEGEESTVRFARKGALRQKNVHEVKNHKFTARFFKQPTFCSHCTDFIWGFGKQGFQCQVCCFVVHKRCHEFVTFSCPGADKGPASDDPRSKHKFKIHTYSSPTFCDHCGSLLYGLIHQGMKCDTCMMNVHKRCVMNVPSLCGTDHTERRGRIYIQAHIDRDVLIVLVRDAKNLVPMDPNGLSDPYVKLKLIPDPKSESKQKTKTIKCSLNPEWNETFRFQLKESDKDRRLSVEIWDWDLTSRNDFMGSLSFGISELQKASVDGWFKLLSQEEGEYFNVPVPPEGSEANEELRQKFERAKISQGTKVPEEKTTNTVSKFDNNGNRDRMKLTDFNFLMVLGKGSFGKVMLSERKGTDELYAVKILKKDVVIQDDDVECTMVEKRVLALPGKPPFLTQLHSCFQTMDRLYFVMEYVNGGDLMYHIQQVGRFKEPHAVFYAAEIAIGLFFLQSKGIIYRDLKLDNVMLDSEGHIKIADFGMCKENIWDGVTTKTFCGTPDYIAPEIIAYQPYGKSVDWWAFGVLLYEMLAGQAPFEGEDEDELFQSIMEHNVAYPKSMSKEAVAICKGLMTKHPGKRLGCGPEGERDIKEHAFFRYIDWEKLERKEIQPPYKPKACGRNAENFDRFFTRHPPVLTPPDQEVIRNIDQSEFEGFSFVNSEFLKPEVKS

Turning to `CCN1CC2CC1CN2C(=O)c1cc(-c2ccc(O)cc2)nc2[nH]nc(C)c12` (stereo not drawn) [Example 268, (5-Ethyl-2,5-diaza-bicyclo[2.2.1]hept-2-yl)-[6-(4-hydroxy-phenyl)-3-methyl-1H-pyrazolo[3,4-b]pyridin-4-yl]-methanone], the inhibition at 1.14 µM is 80%. For `Cc1n[nH]c2nc(-c3ccc(O)cc3)cc(C(=O)N3CCCN(C)CC3)c12` [Example 269, [6-(4-Hydroxy-phenyl)-3-methyl-1H-pyrazolo[3,4-b]pyridin-4-yl]-(4-methyl-[1,4]diazepan-1-yl)-methanone] the value was 87%; for `Cc1n[nH]c2nc(-c3ccc(O)cc3)cc(C(=O)NCC(C)(C)CN)c12` [Example 270, 6-(4-Hydroxy-phenyl)-3-methyl-1H-pyrazolo[3,4-b]pyridine-4-carboxylic acid (3-amino-2,2-dimethyl-propyl)-amide], 87%; for `Cc1n[nH]c2nc(-c3ccc(O)cc3)cc(C(=O)N3CCN(CCS(C)(=O)=O)CC3)c12` [Example 271, [6-(4-Hydroxy-phenyl)-3-methyl-1H-pyrazolo[3,4-b]pyridin-4-yl]-[4-(2-methanesulfonyl-ethyl)-piperazin-1-yl]-methanone], 66%. As to `Cc1n[nH]c2nc(-c3ccc(O)cc3)cc(C(=O)N(C)C3CCN(C)CC3)c12` [Example 272, 6-(4-Hydroxy-phenyl)-3-methyl-1H-pyrazolo[3,4-b]pyridine-4-carboxylic acid methyl-(1-methyl-piperidin-4-yl)-amide], the inhibition at 1.14 µM was 85%.

`CCN1CCCC(NC(=O)c2cc(-c3ccc(O)cc3)nc3[nH]nc(C)c23)C1` (stereo not drawn) [Example 273, 6-(4-Hydroxy-phenyl)-3-methyl-1H-pyrazolo[3,4-b]pyridine-4-carboxylic acid (1-ethyl-piperidin-3-yl)-amide]: the inhibition at 1.14 µM came out at 83%. As for `Cc1n[nH]c2nc(-c3ccc(O)cc3)cc(C(=O)N3C[C@]4(C)CN(C)C[C@](C)(C3)C4O)c12` (stereo partly drawn) [Example 274, [6-(4-Hydroxy-phenyl)-3-methyl-1H-pyrazolo[3,4-b]pyridin-4-yl]-((1S,5R)-9-hydroxy-1,5,7-trimethyl-3,7-diaza-bicyclo[3.3.1]non-3-yl)-methanone], the inhibition at 1.14 µM came out at 88%.

`Cc1n[nH]c2nc(-c3ccc(O)cc3)cc(C(=O)NC3CCCN(C)C3)c12` (stereo not drawn) [Example 275, 6-(4-Hydroxy-phenyl)-3-methyl-1H-pyrazolo[3,4-b]pyridine-4-carboxylic acid (1-methyl-piperidin-3-yl)-amide]: the inhibition at 1.14 µM was determined as 89%. `Cc1n[nH]c2nc(-c3ccc(O)cc3)cc(C(=O)NC3CC(C)(C)N(C)C(C)(C)C3)c12` [Example 276, 6-(4-Hydroxy-phenyl)-3-methyl-1H-pyrazolo[3,4-b]pyridine-4-carboxylic acid (1,2,2,6,6-pentamethyl-piperidin-4-yl)-amide]: the inhibition at 1.14 µM amounted to 66%. The result for `CC(=O)N1CCC(NC(=O)c2cc(-c3ccc(O)cc3)nc3[nH]nc(C)c23)CC1` [Example 277, 6-(4-Hydroxy-phenyl)-3-methyl-1H-pyrazolo[3,4-b]pyridine-4-carboxylic acid (1-acetyl-piperidin-4-yl)-amide] reads 35%; that for `Cc1n[nH]c2nc(-c3ccc(O)cc3)cc(C(=O)NCC3CCC(=O)N3)c12` (stereo not drawn) [Example 278, 6-(4-Hydroxy-phenyl)-3-methyl-1H-pyrazolo[3,4-b]pyridine-4-carboxylic acid (5-oxo-pyrrolidin-2-ylmethyl)-amide], 68%. The result for `Cc1n[nH]c2nc(-c3ccc(O)cc3)cc(C(=O)NC3CCN(C4CCCCC4)CC3)c12` [Example 279, 6-(4-Hydroxy-phenyl)-3-methyl-1H-pyrazolo[3,4-b]pyridine-4-carboxylic acid (1-cyclohexyl-piperidin-4-yl)-amide] reads 78%; that for `Cc1n[nH]c2nc(-c3ccc(O)cc3)cc(C(=O)N3CCN(C(=O)C4CCCO4)CC3)c12` (stereo not drawn) [Example 280, [6-(4-Hydroxy-phenyl)-3-methyl-1H-pyrazolo[3,4-b]pyridin-4-yl]-[4-(tetrahydro-furan-2-carbonyl)-piperazin-1-yl]-methanone], 88%. For the molecule `CCN1CCCN(C(=O)c2cc(-c3ccc(O)cc3)nc3[nH]nc(C)c23)CC1` [Example 281, (4-Ethyl-[1,4]diazepan-1-yl)-[6-(4-hydroxy-phenyl)-3-methyl-1H-pyrazolo[3,4-b]pyridin-4-yl]-methanone], the inhibition at 1.14 µM turned out to be 85%. For the molecule `Cc1n[nH]c2nc(-c3ccc(O)cc3)cc(C(=O)N3CC4CCCN4CC3c3ccccc3)c12` (stereo not drawn) [Example 282, [6-(4-Hydroxy-phenyl)-3-methyl-1H-pyrazolo[3,4-b]pyridin-4-yl]-(3-phenyl-hexahydro-pyrrolo[1,2-a]pyrazin-2-yl)-methanone], the inhibition at 1.14 µM was determined as 73%. The result for `COC(=O)C1(N)CCN(C(=O)c2cc(-c3ccc(O)cc3)nc3[nH]nc(C)c23)CC1` [Example 283, 4-Amino-1-[6-(4-hydroxy-phenyl)-3-methyl-1H-pyrazolo[3,4-b]pyridine-4-carbonyl]-piperidine-4-carboxylic acid methyl ester] reads 45%; that for `Cc1n[nH]c2nc(-c3ccc(O)cc3)cc(C(=O)N3CC4CCCN4CC3C)c12` (stereo not drawn) [Example 284, [6-(4-Hydroxy-phenyl)-3-methyl-1H-pyrazolo[3,4-b]pyridin-4-yl]-(3-methyl-hexahydro-pyrrolo[1,2-a]pyrazin-2-yl)-methanone], 66%; that for `Cc1n[nH]c2nc(-c3ccc(O)cc3)cc(C(=O)N3CC4CCCCN4CC3C)c12` (stereo not drawn) [Example 285, [6-(4-Hydroxy-phenyl)-3-methyl-1H-pyrazolo[3,4-b]pyridin-4-yl]-(3-methyl-octahydro-pyrido[1,2-a]pyrazin-2-yl)-methanone], 76%. For `Cc1n[nH]c2nc(-c3ccc(O)cc3)cc(C(=O)NCC(C)(CN3CCCC3)c3ccccn3)c12` (stereo not drawn) [Example 286, 6-(4-Hydroxy-phenyl)-3-methyl-1H-pyrazolo[3,4-b]pyridine-4-carboxylic acid (2-methyl-2-pyridin-2-yl-3-pyrrolidin-1-yl-propyl)-amide] the value was 62%. For `Cc1n[nH]c2nc(-c3ccc(O)cc3)cc(C(=O)N3CCC(CN4CCCCC4)CC3)c12` [Example 287, [6-(4-Hydroxy-phenyl)-3-methyl-1H-pyrazolo[3,4-b]pyridin-4-yl]-(4-piperidin-1-ylmethyl-piperidin-1-yl)-methanone] the value was 34%. `Cc1n[nH]c2nc(-c3ccc(O)c(F)c3)cc(C(=O)NC3CC4(CC(N)C4)C3)c12` (stereo not drawn) [Example 288, 6-(3-Fluoro-4-hydroxy-phenyl)-3-methyl-1H-pyrazolo[3,4-b]pyridine-4-carboxylic acid (6-amino-spiro[3.3]hept-2-yl)-amide]: the inhibition at 1.14 µM came out at 59%.

Regarding `Cc1n[nH]c2nc(-c3ccc(O)c(F)c3)cc(C(=O)N3CC4CNCC4C3)c12` (stereo not drawn) [Example 289, [6-(3-Fluoro-4-hydroxy-phenyl)-3-methyl-1H-pyrazolo[3,4-b]pyridin-4-yl]-(hexahydro-pyrrolo[3,4-c]pyrrol-2-yl)-methanone], the inhibition at 1.14 µM was 84%. For `Cc1n[nH]c2nc(-c3ccc(O)c(F)c3)cc(C(=O)N3CCN[C@@H](C)C3)c12` [Example 290, [6-(3-Fluoro-4-hydroxy-phenyl)-3-methyl-1H-pyrazolo[3,4-b]pyridin-4-yl]-((S)-3-methyl-piperazin-1-yl)-methanone] the value was 96%; for `CCC[C@@H]1CN(C(=O)c2cc(-c3ccc(O)c(F)c3)nc3[nH]nc(C)c23)CCN1` [Example 291, [6-(3-Fluoro-4-hydroxy-phenyl)-3-methyl-1H-pyrazolo[3,4-b]pyridin-4-yl]-((R)-3-propyl-piperazin-1-yl)-methanone], 89%. For `Cc1n[nH]c2nc(-c3ccc(O)c(F)c3)cc(C(=O)N3CC[C@H](N)C3)c12` [Example 292, ((S)-3-Amino-pyrrolidin-1-yl)-[6-(3-fluoro-4-hydroxy-phenyl)-3-methyl-1H-pyrazolo[3,4-b]pyridin-4-yl]-methanone] the value was 77%. With `CCC[C@H]1CN(C(=O)c2cc(-c3ccc(O)c(F)c3)nc3[nH]nc(C)c23)CCN1` [Example 293, [6-(3-Fluoro-4-hydroxy-phenyl)-3-methyl-1H-pyrazolo[3,4-b]pyridin-4-yl]-((S)-3-propyl-piperazin-1-yl)-methanone], the inhibition at 1.14 µM stood at 89%. Regarding `CCCC[C@H]1CN(C(=O)c2cc(-c3ccc(O)c(F)c3)nc3[nH]nc(C)c23)CCN1` [Example 294, ((S)-3-Butyl-piperazin-1-yl)-[6-(3-fluoro-4-hydroxy-phenyl)-3-methyl-1H-pyrazolo[3,4-b]pyridin-4-yl]-methanone], the inhibition at 1.14 µM came out at 85%. For `CC[C@H]1CN(C(=O)c2cc(-c3ccc(O)c(F)c3)nc3[nH]nc(C)c23)CCN1` [Example 295, ((S)-3-Ethyl-piperazin-1-yl)-[6-(3-fluoro-4-hydroxy-phenyl)-3-methyl-1H-pyrazolo[3,4-b]pyridin-4-yl]-methanone] the value was 94%; for `Cc1n[nH]c2nc(-c3ccc(O)c(F)c3)cc(C(=O)N3CCNC4CS(=O)(=O)CC43)c12` (stereo not drawn) [Example 296, (6,6-Dioxo-octahydro-6lambda6-thieno[3,4-b]pyrazin-1-yl)-[6-(3-fluoro-4-hydroxy-phenyl)-3-methyl-1H-pyrazolo[3,4-b]pyridin-4-yl]-methanone], 32%; for `COC(=O)[C@H]1CN(C(=O)c2cc(-c3ccc(O)c(F)c3)nc3[nH]nc(C)c23)CCN1` [Example 297, (R)-4-[6-(3-Fluoro-4-hydroxy-phenyl)-3-methyl-1H-pyrazolo[3,4-b]pyridine-4-carbonyl]-piperazine-2-carboxylic acid methyl ester], 34%.

What is called inhibition is the percentage by which the read-out fell short of the control.
